Tested on: PGE2 production
Assay: Rat air-pouch model for acute inflammation (exudate PGE2 by ELISA)
Type: in vivo, Sprague-Dawley rats
Conditions: oral gavage 0.01 mmol/kg 2 h before carrageenan, exudate 4 h after carrageenan
Procedure: A study of chromene release is assessed by measurement of PGE2 levels, which are indicative of inflammatory response. Compounds of the present invention lower the inflammatory response by selective COX-2 inhibition, decreasing PGE-2 levels in patients.
Animals: Sprague-Dawley rats (Charles River Laboratories, R #3234, PO #738990, male, 160-180 g) are received, individually examined, and housed in cages of five rats each. The rats are ear notched for identification purposes.
Compounds and dosing solutions: The vehicle is prepared by dissolving 40 g (2-hydroxypropyl)-β-cyclodextrin (HP-β-CD, Sigma, Cat. 332593, lot MKBJ5858V) in 160 mL sterile saline for injection, USP (Hospira, lot 26-801-FW) making a 25% solution which is filter sterilized (0.2 μm, Nalgene, Cat. 151-4020, lot 1095610). A 1% carrageenan solution is prepared by dissolving 0.6 g λ-carrageenan (Fluka, Cat. 22049, lot 1318338) in hot 60 mL sterile saline for injection, USP. This solution is stored at 4-8° C. Test compounds are dissolved in DMSO (Fisher Scientific, Cat. D128-500, lot 874999) to make 75 mM stocks. 0.25 mL of compound DMSO stocks are mixed with 12.5 mL of HP-β-CD solution at 50° C. (maximum DMSO concentration is 2% of the final volume of vehicle,). […]
Day 6—Compound administration and carrageenan insult: At commencement of the study, each rat is weighed and sorted into treatment groups of 5 rats/group based upon average weight. […] The pouch is gently massaged, the exudate immediately removed, and exudate volume recorded. […]
Data analysis: The exudate samples are thawed to room temperature and assayed by ELISA for PGE2 (R&D Systems, Cat. KGE004B, lot 307711). Statistical significance of treatments on mean exudate volumes are determined by comparison of means for treatment groups with vehicle group. Mean cytokine concentrations and standard deviations are determined for each group. Statistical significance of treatments on cytokine concentrations are determined for each compound group compared to vehicle group. Statistical significance (p-value) is calculated vs control groups by Student's t-Test. […]

Structure (SMILES) | % Inhibition of PGE2 production relative to control (+/−S.D.)
CC(C)(C)c1cc2c(cc1Cl)C=C(C(=O)OC(CO[N+](=O)[O-])CO[N+](=O)[O-])C(C(F)(F)F)O2 (stereo not drawn) [Example 22a, 1,3-bis(Nitrooxy)propan-2-yl 7-(tert-butyl)-6-chloro-2-(trifluoromethyl)-2H-chromene-3-carboxylate] | 75.4 (+/−9.1) %
CC(C)(C)c1cc2c(cc1Cl)C=C(C(=O)O[C@H]1CO[C@H]3[C@@H]1OC[C@H]3O[N+](=O)[O-])[C@@H](C(F)(F)F)O2 [Example 33, (S)-(3S,3aR,6R,6aS)-6-(nitrooxy)hexahydrofuro[3,2-b]furan-3-yl 7-(tert-butyl)-6-chloro-2-(trifluoromethyl)-2H-chromene-3-carboxylate] | 91.8 (+/−4.9) %
CC(C)(C)c1cc2c(cc1Cl)C=C(C(=O)O[C@H]1CO[C@H]3[C@@H]1OC[C@H]3O[N+](=O)[O-])C(C(F)(F)F)O2 (stereo partly drawn) [Example 33a, (3S,3aR,6R,6aS)-6-(nitrooxy)hexahydrofuro[3,2-b]furan-3-yl 7-(tert-butyl)-6-chloro-2-(trifluoromethyl)-2H-chromene-3-carboxylate] | 76.7 (+/−7.8) %
